Reference: patent publication US9677079B2, “Yeast cells expressing amyloid beta and uses therefor” (Whitehead Insititute for Biomedical Research, priority 2010, dated 2017)
“Also recorded” adds a separate entry of the source.

Columns and labels:
[1] = system: strain expressing toxic levels of Aβ (ssAβ 1-42 strain); test: Clioquinol rescue: growth in liquid culture of ssAβ 1-42 strain and YFP control strain (Bioscreen, OD600); assay type: cell-based, Saccharomyces cerevisiae; conditions: FIG. 4
Procedure: To further test the effect of clioquinol, a control strain and a strain expressing toxic levels of Aβ were grown in liquid culture with various concentrations of the compound.
To generate ssAβ1-42 screening strains the ssAβ1-42 construct was moved to a pAG Gal p305 expression vector (S. Alberti, A. D. Gitler, S. Lindquist, A suite of Gateway cloning vectors for highthroughput genetic analysis in Saccharomyces cerevisiae. Yeast 24, 913 (2007)). The plasmid was digested using BstX1, gel purified and transformed into W303. The transformation was carried out in duplicate and the level of growth of 16 transformants each was tested on synthetic deficient media lacking leucine with galactose. Two strains from the independent transformations where chosen as screening strains based on their robust yet intermediate toxicity that would allow for the identification of both suppressors and enhancers. […] The control strain for wild type yeast growth is carrying a Gal inducible YFP integrated in the same fashion as the ssAβ1-42 constructs. For spotting assays strains were grown over night at 30° C. in 3 ml SD media lacking the relevant amino acids and containing glucose. Cell concentrations (OD600) were adjusted in a 96-well plate to that of the strain with the lowest concentration. Cells were then 5 fold serially diluted and spotted on SD media containing glucose (Uninduced) and galactose (Induced). Plates were incubated at 30° C. for 2 (glucose) or 3 days (galactose).
Yeast strains were grown overnight to saturation in synthetic medium with glucose as the carbon source after inoculation from a colony. These cultures were used to inoculate raffinose cultures. Raffinose cultures in log phase growth (OD600 0.7-0.9) were diluted to an OD600 of 0.03 in synthetic medium with galactose as the carbon source, and […] of the cell suspension was distributed to each well of a Bioscreen plate. […] of clioquinol (Sigma C8133, ˜95%), dissolved in DMSO at 100 times the final intended concentration, was added to each well. […]

[2] = system: GAL1-induced expression (GAL controlled YFP); test: GAL1-induced expression measured by flow cytometry of GAL controlled YFP; assay type: cell-based, Saccharomyces cerevisiae; conditions: flow cytometry of GAL controlled YFP (data not shown)

Oc1c(I)cc(Cl)c2cccnc12 [clioquinol]
toxicity at higher concentrations ([1]; higher concentrations, ssAβ 1-42 strain and YFP control strain): toxic to both strains | growth at the optimal concentration compared with control strain ([1]; optimal concentration, control strain expressing YFP): nearly as robust as that of the control strain; also recorded: restored growth levels to those of a control strain expressing YFP | growth of the Aβ expressing strain (dose dependence of rescue) ([1]; ssAβ 1-42 strain in inducing (galactose) media, various concentrations): improved the growth of the Aβ expressing strain in a dose dependent manner; also recorded: rescued growth levels in a dose dependent manner | effect on GAL1-induced expression [2]: did not diminish GAL1-induced expression
